Results reported in PMC7988488 (The Journal of Biological Chemistry, 2021).
Read-outs that look alike come from different tables or passages of the source.

Key:
[1] = tested on: capsaicin-induced nociceptive behavior; assay: Capsaicin-induced nociception; type: in vivo, mice; conditions: 100 μg/kg i.m., 30 min before intraplantar capsaicin 1 μg; 5-min observation
Experimental: On the day of testing, ICR male mice were treated by intramuscular injection with equal volume of saline, H4 (10 and 30 μg/kg i.m.), or a positive control in the form of the potent Nav1.7 antagonist PF-05198007 (100 μg/kg i.m.) ([35]). Thirty minutes following test article treatment, animals were subjected to intraplantar injection of 1 μg of capsaicin in a volume of 20 μl of 5% EtOH in saline into the right hind paw. Immediately after the capsaicin injection, the total time spent engaged in licking of the injected hind paw was manually recorded over a 5-min period. All dosing and scoring activities were conducted by experimenters who were fully blinded to treatment conditions.

[2] = tested on: CFA-induced mechanical allodynia; parameters: species or system mice; conditions: mouse, in vivo
acute heat pain response = type: in vivo, mice
[3] = tested on: formalin-induced spontaneous pain behaviors; type: in vivo, mice
hNav1.7 mutants = type: cell-based, human

In the case of `Nc1[nH]ncc1-c1cc(Cl)ccc1Oc1cc(F)c(S(=O)(=O)Nc2cscn2)cc1Cl` [PF-05089771], the “capsaicin-elicited paw licking response (in words)” value [1] is reported as “significantly blocked”.

For `CN1CC[C@]23c4c5ccc(O)c4O[C@H]2[C@@H](O)C=C[C@H]3[C@H]1C5` [morphine], the “duration of anti-allodynic effect” value [2] was 2 h, the “paw withdrawal threshold compared with saline (in words)” value [2] was “significantly enhanced” and the hot plate latency (acute heat pain response; mouse, in vivo, SD) was 17.0 ± 0.9 s. For the same compound, the “paw licking time, early phase” value ([3]; mouse, in vivo) was 110.3 ± 12.9 s and the “paw licking time, late phase” value ([3]; mouse, in vivo) was 86.7 ± 8.5 s.

In the case of Hainantoxin-III [Compound 1], the “affinity for hNav1.7 mutants versus WT hNav1.7 (in words)” value (hNav1.7 mutants) is reported as “did not change significantly”, the hot plate latency (acute heat pain response; 100 μg/kg i.p., 1 h after treatment, plate 55 °C, mean ± SD, n = 5 to 8) is reported as 15.1 ± 0.9 s and the “paw licking time, early phase” value ([3]; 100 μg/kg i.m., 30 min before formalin, early phase 0-10 min, control 145.2 ± 6.9 s) is reported as 68.1 ± 9.7 s. The “paw licking time, late phase” value ([3]; 100 μg/kg i.m., 30 min before formalin, late phase 15-35 min, control 224 ±16.7 s) was 71.0 ± 13.0 s.
